Earlier results in article PMC3159814 (Bioorganic & medicinal chemistry letters, 2011).

System: GnRH receptor

GnRH receptor binding affinity: 36.1 nM
Substance: 1,4,7,10-tetraazacyclododecane-1,4,7,10-tetraacetic acid (DOTA)-Ahx-(D-Lys^6-GnRH1) [DOTA-Ahx-(D-Lys^6-GnRH1)]
